# Results published in ChEMBL document CHEMBL4715853 (J Med Chem, 2020).
# Columns and labels:
# [1] = Inhibition of SARS Coronavirus helicase expressed in Escherichia coli assessed as reduction in dsDNA unwinding activity by FRET assay; design: species or system Severe acute respiratory syndrome-related coronavirus
# [2] = Inhibition of SARS Coronavirus helicase expressed in Escherichia coli assessed as reduction in ATP hydrolysis preincubated for 5 mins followed by ATP and circular ssDNA M13 addition and measured after 10 mins by malachite green and ammonium molybdate reagent based assay; design: species or system Severe acute respiratory syndrome-related coronavirus
# [3] = Selectivity ratio of CC50 for human MRC5 cells to EC50 for HCoV-229E infected in human MRC5 cells; assay type: toxicity, cell-based; details: read-out: Ratio CC50/EC50
# [4] = test system: Human coronavirus 229E; experiment: Antiviral activity against HCoV-229E infected in human MRC-5 cells incubated for 96 hrs by XTT assay; assay type: functional, organism-based; details: MRC5, 96 h
# [5] = Cytotoxicity against human MRC5 cells incubated for 96 hrs by XTT assay; assay type: cell-based
# [6] = test system: Human coronavirus 229E; experiment: Antiviral activity against HCoV-229E infected in human Huh7 cells assessed as reduction in virus induced cytopathic effect incubated for 6 days by cellTiter-Glo assay; assay type: functional, organism-based; details: Huh-7, 144 h
# [7] = Cytotoxicity against HAE cells by CellTiter-Glo assay; assay type: cell-based; details: human
# [8] = test system: Huh-7; experiment: Cytotoxicity against human Huh7 cells incubated for 6 days by cellTiter-Glo assay; assay type: functional; details: Huh-7, 144 h, time 6 day
# [9] = test system: Human coronavirus OC43; experiment: Antiviral activity against wild type HCoV-OC43 infected in human Huh-7 cells preincubated for 1 hrs followed by overlaying with reduced-serum Medium and measured after 72 hrs ELISpot assay; assay type: functional, cell-based; details: Betacoronavirus 1, Huh-7
# [10] = Cytotoxicity against African green monkey Vero E6 cells by the CCK8 assay; assay type: cell-based, Vero C1008; details: chlorocebus sabaeus
# [11] = test system: SARS-CoV; experiment: Antiviral activity against SARS-CoV expressing green fluorescent protein infected in human airway epithelial cells incubated for 48 hrs by RT-PCR method; assay type: functional, organism-based; details: Severe acute respiratory syndrome-related coronavirus, HAE
# [12] = Cytotoxicity against human Huh-7 cells by CellTiter-Glo assay; assay type: cell-based
# [13] = Inhibition of SARS Coronavirus helicase pp1ab domain assessed as reduction in helicase activity using DT20Cy3/Release BHQ oligomers by FRET-based assay; design: species or system Severe acute respiratory syndrome-related coronavirus
# [14] = Inhibition of SARS Coronavirus helicase pp1ab domain assessed as reduction in ATPase activity by phosphomolybdate-malachite green assay; design: species or system Severe acute respiratory syndrome-related coronavirus
# [15] = test system: SARS-CoV; experiment: Antiviral activity against SARS-CoV by cell-based assay; assay type: functional; details: Severe acute respiratory syndrome-related coronavirus
# [16] = in vitro; details: rhesus monkey, LLC-MK2 cells
# [17] = in vitro; details: hamster, BHK-21 cells
# [18] = in vitro; details: rhesus monkey, LLC-MK2 cells; remark: listed apart in the source
# [19] = test system: Human coronavirus OC43; experiment: Antiviral activity against wild type HCoV-OC43 infected in BHK-21 cells incubated for 72 hrs by RT-PCR method; assay type: functional, cell-based; details: Betacoronavirus 1, BHK-21, 72 h
# [20] = in vitro; details: hamster, BHK-21 cells; remark: listed apart in the source
# [21] = Antiviral activity against HCoV-NL63 infected in Rhesus macaque LLC-MK2 cells incubated for 72 hrs by RT-PCR method; assay type: functional, cell-based; details: Human coronavirus NL63, LLC-MK2, 72 h
# [22] = Selectivity index, ratio of CC50 for African green monkey Vero E6 cells to EC50 for SARS-CoV infected in African green monkey Vero E6 cells; assay type: toxicity, Vero C1008; details: read-out: Ratio CC50/EC50
# [23] = test system: SARS-CoV; experiment: Antiviral activity against SARS-CoV infected in African green monkey Vero E6 cells assessed as reduction in viral replication by ELISA; assay type: functional, organism-based; details: Severe acute respiratory syndrome-related coronavirus, Vero C1008
# [24] = Cytotoxicity against African green monkey Vero E6 cells incubated for 2 days by the MTS assay; assay type: cell-based, Vero C1008; details: chlorocebus sabaeus, time 2 day
# [25] = Selectivity ratio of CC50 for African green monkey Vero cells to EC50 for SARS-CoV FFM2 infected in African green monkey Vero cells; assay type: toxicity; details: read-out: Ratio CC50/EC50
# [26] = test system: SARS-CoV; experiment: Antiviral activity against SARS-CoV FFM2 infected in African green monkey Vero cells assessed as reduction in virus induced cytopathic effect treated twice for 7 days; assay type: functional, organism-based; details: Severe acute respiratory syndrome-related coronavirus, 168 h
# [27] = test system: SARS-CoV; experiment: Antiviral activity against SARS-CoV FFM1 infected in African green monkey Vero cells assessed as reduction in virus induced cytopathic effect treated twice for 7 days; assay type: functional, organism-based; details: Severe acute respiratory syndrome-related coronavirus, 168 h
# [28] = Selectivity ratio of CC50 for African green monkey Vero cells to EC50 for SARS-CoV FFM1 infected in African green monkey Vero cells; assay type: toxicity; details: read-out: Ratio CC50/EC50
# [29] = test system: SARS-CoV-2; experiment: Antiviral activity against SARS-CoV-2 infected in African green monkey Vero cells incubated for 48 hrs by RT-PCR method; assay type: functional, organism-based; details: Severe acute respiratory syndrome coronavirus 2, Vero
smiles,measurement,setting,value
NS(=O)(=O)c1ccc(NC(=O)/C=C/c2ccco2)cc1,IC50,[1],13.2 µM
same,IC50,[2],2.09 µM
C[C@H]1O[C@@H](O[C@H]2CC[C@@]3(C)[C@@H](CC[C@]4(C)[C@@H]3C=CC3=C5CC(C)(C)CC[C@]5(CO)[C@H](O)C[C@]34C)[C@]2(C)CO)[C@H](O)[C@@H](O[C@@H]2O[C@H](CO)[C@@H](O)[C@H](O)[C@H]2O)[C@H]1O,selectivity ratio,[3],222
same,EC50,[4],1.7 µM
same,CC50 at 96 h,[5],383 µM
CCC(CC)COC(=O)[C@H](C)N[P@](=O)(OC[C@H]1O[C@@](C#N)(c2ccc3c(N)ncnn23)[C@H](O)[C@@H]1O)Oc1ccccc1,EC50,[6],0.024 µM
same,CC50,[7],> 10 µM
same,CC50,[8],> 10 µM
same,EC50,[9],0.15 µM
same,CC50,[10],100 µM
same,EC50,[11],0.06 µM
same,CC50,[12],> 10 µM
CCn1c(S)nc2c1c(=O)[nH]c(=O)n2C,IC50,[1],41.6 µM
same,IC50,[2],8.66 µM
COc1cc(CC(C)c2nc(C)c(O)c(C34OC5(O)CC(O)(CC(O)(C5)O3)O4)c2CO)ccc1O (stereo not given),IC50,[13],5.4 µM
same,IC50,[14],2.8 µM
COc1cc(C23OC4(O)CC(O)(CC(O)(C4)O2)O3)ccc1O,IC50,[13],2.7 µM
same,IC50,[14],0.68 µM
Cc1nc(I)c(C(=O)O)c(C23OC4(O)CC(O)(CC(O)(C4)O2)O3)c1O,IC50,[13],7 µM
same,IC50,[14],0.54 µM
C[C@@H]1O[C@@H](O[C@H]2[C@H](O[C@H]3CC[C@@]4(C)[C@@H](CC[C@]5(C)[C@@H]4CC=C4[C@@H]6CC(C)(C)CC[C@]6(C(=O)O)CC[C@]45C)[C@]3(C)CO)OC[C@H](O)[C@@H]2O)[C@H](O)[C@H](O)[C@H]1O [ALPHA-HEDERIN],MIC,[15],10 µM
CC[C@H]1CN2CCc3cc(OC)c(OC)cc3[C@@H]2C[C@@H]1C[C@H]1NCCc2cc(OC)c(OC)cc21 [EMETINE],selectivity ratio,[16],2.5
same,selectivity ratio,[17],9
same,CC50 at 72 h,[18],3.63 µM
same,EC50,[19],0.3 µM
same,CC50 at 72 h,[20],2.69 µM
same,EC50,[21],1.43 µM
C/C=C(\C)C(=O)O[C@H]1[C@H](OC(C)=O)[C@]2(CO)[C@H](O)C[C@]3(C)C(=CC[C@@H]4[C@@]5(C)CC[C@H](O[C@@H]6O[C@H](C(=O)O)[C@@H](O[C@@H]7O[C@H](CO)[C@@H](O)[C@H](O)[C@H]7O)[C@H](O)[C@H]6O[C@@H]6O[C@H](CO)[C@@H](O)[C@H](O)[C@H]6O)[C@](C)(CO)[C@@H]5CC[C@]43C)[C@@H]2CC1(C)C [ESCIN IA],selectivity ratio,[22],2.5
same,IC50,[23],6 µM
same,CC50 at 48 h,[24],25 µM
CC1(C)[C@@H](O[C@H]2O[C@H](C(=O)O)[C@@H](O)[C@H](O)[C@H]2O[C@@H]2O[C@H](C(=O)O)[C@@H](O)[C@H](O)[C@H]2O)CC[C@]2(C)[C@H]3C(=O)C=C4[C@@H]5C[C@@](C)(C(=O)O)CC[C@]5(C)CC[C@@]4(C)[C@]3(C)CC[C@@H]12 [GLYCYRRHIZIN],selectivity ratio,[25],66
same,EC50,[26],365 µM
same,EC50,[27],365 µM
same,selectivity ratio,[28],66
CCN(CCO)CCCC(C)Nc1ccnc2cc(Cl)ccc12 (stereo not given) [HYDROXYCHLOROQUINE],IC50,[29],0.72 µM
